System: T. cruzi intracellular amastigotes in H9c2 cells
Experiment: Rate-of-Kill (RoK) high-content imaging assay, amastigotes per cell (AM/CELL) and curve descriptors
Type: cell-based, Trypanosoma cruzi
Parameters: key to ME_24h / ME_48h / ME_72h: % reduction in parasite burden (cidal response); t50pct_MCC50 / t50pct_Cmax: unit not given here
Settings: for ME_24h: 24h; for ME_48h: 48h; for ME_72h: 72h; for t50%_Cmax / tlag_Cmax / t50pct_Cmax: at Cmax; for ME_24h (%): maximum effect at 24 h; for ME_24h (%) / ME_48h (%) / ME_72h (%): RoK assay; for ME_48h (%): maximum effect at 48 h; for ME_72h (%): maximum effect at 72 h; for ME 24h (maximum effect at 24 hours, intracellular amastigotes): maximum percentage of parasite burden reduction reached by any concentration
Summary of the method: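 H9c2 cardiomyocytes infected with T. cruzi trypomastigotes (MOI 8, 18 h), then compounds tested at 5 μM single shot or 11-point 1/3 dilution from 50 μM. DRAQ5-stained nuclei imaged over a time course. Amastigotes per cell normalised to infected cells at 4 h (0%) and non-infected cells (100%).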

SMILES | ME_24h (figure 5) | ME_48h (figure 5) | ME_72h (figure 5) | MCC50 (RoK curve descriptor) [µM] | MCCE (RoK curve descriptor) [µM] | AM/CELL NORM (Time 4, sheet figure 4 A) | AM/CELL NORM (Time 24, sheet figure 4 A) | AM/CELL NORM (Time 48, sheet figure 4 A) | tlag_Cmax [h] | t50pct_Cmax (figure 5) | tlag_Cmax (figure 5) | t50%_MCC50 (at MCC50) [h] | tlag_MCC50 (at MCC50) [h] | t50pct_MCC50 (at MCC50, figure 5) | tlag_MCC50 (at MCC50, figure 5) | MCCE (figure 5) | ME_24h (%) | ME_48h (%) | ME_72h (%) | ME 24h (maximum effect at 24 hours, intracellular amastigotes) [%] | other results
COc1ccc(C(C)N(C)c2ncc3c(N)nc(N)nc3n2)cc1F (stereo not shown) [TCMDC-143298] | 43.2682 | 65.4547 | 72.4604 | 1.4 | 0.16 | 12.1557 | 34.3534 | 59.1852 | 4.0 | 64 | 4 | 56.0 | 4.0 | 56 | 4 | 0.16 | 43.3 | 65.5 | 72.5 | 45.8485 | MCC and MCCE values (in words): low MCC and MCCE values; ME (maximum effect) in RoK assay (in words): high ME value; tlag times: 4 h; AM/CELL NORM (Time 72, sheet figure 4 A): 72.1771; t50%_Cmax: 64.0 h; MCC50 (figure 5): 1.44 µM
O=C(NCC1CCCCC1)c1cc(=O)c2ccccc2o1 [TCMDC-123621] | 36.8077 | 33.2383 | 64.4668 | 5.6 | 0.6 | – | – | – | 4.0 | 72 | 4 | 72.0 | 4.0 | 72 | 4 | 0.6173 | 36.8 | 33.2 | 64.5 | 36.8077 | AM/CELL NORM (Time 4, figure 4 A): -5.701; AM/CELL NORM (Time 24, figure 4 A): 30.3317; AM/CELL NORM (Time 48, figure 4 A): 33.2183; AM/CELL NORM (Time 72, figure 4 A): 64.4668; t50%_Cmax: 72.0 h; MCC50 (figure 5, in µM): 5.556
O=S(=O)(c1cccc(CSc2nnc(-c3ccc4c(c3)OCO4)o2)c1)N1CCOCC1 [TCMDC-143197] | -16.5303 | 13.4442 | 33.635 | – | 0.07 | -18.4264 | -16.5303 | -6.567 | 4.0 | 72 | 4 | – | – | 72 | 72 | 0.06859 | -16.5 | 13.4 | 33.6 | -16.5303 | AM/CELL NORM (Time 72, sheet figure 4 A): 29.0194; MCC50 (figure 5): 50 µM
Cl.O=c1cc(NCCCNC2CCOc3c(I)cc(Cl)cc32)[nH]c2ccccc12 (stereo not shown) [TCMDC-139489] | 37.6706 | 64.7005 | 58.8587 | 5.6 | 0.2 | – | – | – | 4.0 | 48 | 4 | 72.0 | 4.0 | 72 | 4 | 0.2058 | 37.7 | 64.7 | 58.9 | 37.6706 | ME (maximum effect) in RoK assay (in words): high ME at 24 hours and 72 hours; tlag (in words): short tlag times; AM/CELL NORM (Time 4, figure 4 A): 5.191; AM/CELL NORM (Time 24, figure 4 A): 37.6706; AM/CELL NORM (Time 48, figure 4 A): 64.7005; AM/CELL NORM (Time 72, figure 4 A): 58.8587; t50%_Cmax: 48.0 h; MCC50 (figure 5, in µM): 5.556
COc1ccc(S(=O)(=O)Nc2ccccc2OC)cc1NC(=O)CCCc1c[nH]c2ccccc12 [TCMDC-143256] | -69.6887 | 10.9628 | 75.3535 | 5.6 | 1.9 | 3.221 | -34.0663 | 12.7734 | 24.0 | 72 | 24 | 72.0 | 24.0 | 72 | 24 | 1.852 | -69.7 | 11.0 | 75.4 | -34.0663 | AM/CELL NORM (Time 72, sheet figure 4 A): 63.1728; t50%_Cmax: 72.0 h; MCC50 (figure 5, in µM): 5.556
O=C(NCc1ccncc1)c1ccccc1N1CCCN(C(=O)Cc2ccc(F)c(F)c2)CC1.O=C(O)C(F)(F)F.O=C(O)C(F)(F)F [TCMDC-143300] | -279.048 | -72.5657 | 30.5548 | – | 0.07 | -9.816 | -279.048 | -94.5412 | 24.0 | 72 | 24 | – | – | 72 | 72 | 0.06859 | -279.1 | -72.6 | 30.6 | -279.048 | AM/CELL NORM (Time 72, sheet figure 4 A): 9.95; MCC50 (figure 5): 50 µM
COc1ccc2c(Cl)c(C(=O)N3CCC3)sc2c1Cl [TCMDC-143262] | -33.6637 | -143.465 | -114.282 | – | 16.7 | 16.6129 | -33.6637 | -143.465 | 48.0 | 72 | 48 | – | – | 72 | 72 | 16.6667 | -33.7 | -143.5 | -114.3 | -33.6637 | AM/CELL NORM (Time 72, sheet figure 4 A): -114.282; MCC50 (figure 5): 50 µM
COc1cc(NC(=O)Nc2cccc(CNC(=O)OC3CCCCC3)c2)ccc1-c1cnco1 [TCMDC-143376] | -229.157 | -76.0857 | -0.198 | – | 0.6 | – | – | – | 24.0 | 72 | 24 | – | – | 72 | 72 | 0.6173 | -229.2 | -76.1 | -0.2 | 42.5513 | AM/CELL NORM (Time 4, figure 4 A): -2.926; AM/CELL NORM (Time 24, figure 4 A): -229.157; AM/CELL NORM (Time 48, figure 4 A): -76.0857; AM/CELL NORM (Time 72, figure 4 A): -16.3246; MCC50 (figure 5): 50 µM
O=C(NCCc1cccnc1)c1csc(-c2ccccc2)n1 [TCMDC-143203] | -222.428 | -89.2348 | 54.0545 | 5.6 | 0.6 | 2.597 | -179.486 | -77.3027 | 24.0 | 72 | 24 | 72.0 | 24.0 | 72 | 48 | 0.6173 | -222.4 | -89.2 | 54.1 | -177.566 | AM/CELL NORM (Time 72, sheet figure 4 A): 80.8727; t50%_Cmax: 72.0 h; MCC50 (figure 5, in µM): 27.7778
COc1ccc(NS(=O)(=O)c2cc(-c3cc(C)[nH]n3)ccc2C)cc1OC [TCMDC-143194] | -114.917 | -675.674 | -796.23 | 16.7 | 1.2 | – | – | – | 41.3 | 72 | 41.3333 | 72.0 | 24.0 | 72 | 56 | 1.237 | -114.9 | -675.7 | -796.2 | 24.095 | AM/CELL NORM (Time 4, figure 4 A): 17.4808; AM/CELL NORM (Time 24, figure 4 A): 13.7763; AM/CELL NORM (Time 48, figure 4 A): 30.9676; AM/CELL NORM (Time 72, figure 4 A): 53.1796; MCC50 (figure 5, in µM): 38.8889
CCN(C)Cc1ccc(N2CCC(NS(=O)(=O)c3ccc4c(c3)CCO4)CC2)nc1 [TCMDC-143244] | -27.3777 | 29.749 | 55.3707 | 5.6 | 5.6 | 16.0918 | – | – | 24.0 | 72 | 24 | 72.0 | 24.0 | 72 | 48 | 5.556 | -27.4 | 29.8 | 55.4 | -2.6188 | AM/CELL NORM (Time 24, figure 4 A): -52.1365; AM/CELL NORM (Time 48, figure 4 A): 10.0549; AM/CELL NORM (Time 72, figure 4 A): 24.5494; t50%_Cmax: 72.0 h; MCC50 (figure 5, in µM): 27.7778
